The values below come from PubChem BioAssay AID434942 (Johns Hopkins Ion Channel Center, 2010).

This assay deals with Short transient receptor potential channel 4 (Mus musculus) (UniProt Q9QUQ5). Put plainly: mouse TRPC4 channel inhibitors, dose response, cell-based, HEK293 TRPC4/mu-opioid, Fluo-4 calcium (AID 434942).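 Note: potency of inhibitors blocking the DAMGO-evoked TRPC4 calcium rise.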 As to conditions: HEK293 TRPC4/mu-opioid cells, DAMGO-evoked Fluo-4 calcium ratio.
Sequence of Short transient receptor potential channel 4 (Mus musculus) (Q9QUQ5 whole entry, looked up): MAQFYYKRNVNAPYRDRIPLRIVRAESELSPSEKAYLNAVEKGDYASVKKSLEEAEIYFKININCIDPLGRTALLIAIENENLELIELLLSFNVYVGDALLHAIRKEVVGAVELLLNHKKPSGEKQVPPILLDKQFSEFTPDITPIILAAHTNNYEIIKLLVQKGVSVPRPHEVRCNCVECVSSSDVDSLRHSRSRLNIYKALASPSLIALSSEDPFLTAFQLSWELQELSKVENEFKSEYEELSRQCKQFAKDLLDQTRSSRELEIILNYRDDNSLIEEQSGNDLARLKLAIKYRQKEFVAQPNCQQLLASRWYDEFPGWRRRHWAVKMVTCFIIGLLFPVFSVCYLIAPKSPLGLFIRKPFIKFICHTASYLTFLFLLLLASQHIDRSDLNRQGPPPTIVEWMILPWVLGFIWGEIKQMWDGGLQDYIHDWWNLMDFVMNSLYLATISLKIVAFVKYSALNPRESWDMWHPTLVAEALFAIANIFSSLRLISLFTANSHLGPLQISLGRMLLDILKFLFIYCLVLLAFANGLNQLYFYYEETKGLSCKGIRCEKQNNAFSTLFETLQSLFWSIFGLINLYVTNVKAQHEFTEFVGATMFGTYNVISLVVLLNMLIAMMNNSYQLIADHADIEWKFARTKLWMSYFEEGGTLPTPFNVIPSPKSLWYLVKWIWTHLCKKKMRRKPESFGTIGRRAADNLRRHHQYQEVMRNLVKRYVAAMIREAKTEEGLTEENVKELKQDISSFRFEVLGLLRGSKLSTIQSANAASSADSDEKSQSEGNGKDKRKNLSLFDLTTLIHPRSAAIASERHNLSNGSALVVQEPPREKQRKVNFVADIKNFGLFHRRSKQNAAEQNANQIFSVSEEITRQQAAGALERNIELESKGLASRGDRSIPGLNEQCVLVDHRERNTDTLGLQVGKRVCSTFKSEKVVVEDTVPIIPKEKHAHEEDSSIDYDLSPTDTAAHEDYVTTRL

What is called IC50 is the concentration at which inhibition is half-maximal. On to `CC(=O)Nc1ccc(C2(c3ccc(NC(C)=O)cc3)C(=O)Nc3ccccc32)cc1`, for which the IC50 was 1500 nM. The same measure for `CC1Cc2ccccc2N1C(=O)CSc1nc2c(c(=O)n(C)c(=O)n2C)n1Cc1ccccc1` (configuration not stated): 2110 nM.
